How the values were obtained:
[1] = target: T1, human recombinant adrenergic α2B receptor (Homo sapiens, UniProt P18089); assay: Adrenergic alpha2B radioligand binding ([3H]Rauwolscine); conditions: compound at 1 μM; read-out: Adrenergic (1 μM) α2B, percent inhibition of specific binding
T1 construct: expressed in transfected cells; host or cells: CHO-K1 cells
T1 sequence (P18089 1-450): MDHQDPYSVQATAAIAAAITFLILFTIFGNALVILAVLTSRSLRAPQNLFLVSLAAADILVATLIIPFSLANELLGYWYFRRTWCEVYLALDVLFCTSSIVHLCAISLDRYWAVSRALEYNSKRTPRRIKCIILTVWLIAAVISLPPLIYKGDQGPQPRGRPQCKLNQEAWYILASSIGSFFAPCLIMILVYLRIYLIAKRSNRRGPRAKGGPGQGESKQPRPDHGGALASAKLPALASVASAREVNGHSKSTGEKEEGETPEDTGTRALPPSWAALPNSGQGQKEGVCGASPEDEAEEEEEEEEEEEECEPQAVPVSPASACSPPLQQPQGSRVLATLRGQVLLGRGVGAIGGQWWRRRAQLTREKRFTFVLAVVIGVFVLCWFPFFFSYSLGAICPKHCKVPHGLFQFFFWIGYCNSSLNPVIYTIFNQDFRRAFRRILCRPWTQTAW
Description: To evaluate in radioligand binding assays the activity of compounds of the invention, human recombinant adrenergic α2B receptor expressed in Chinese hamster ovary (CHO-K1) cells (Uhlen S et al. Eur J. Pharmacol. 343(1):93, 1998) in a modified Tris-HCl buffer (50 mM Tris-HCl, pH 7.4, 12.5 mM MgCl2, 1 mM EDTA, 0.2% BSA) was used. Compounds of the invention were incubated with 2.5 nM [^3H]Rauwolscine for 60 min. at 25° C. Non-specific binding was estimated in the presence of 10 μM Prozosin. Receptor proteins were filtered and washed, the filters were then counted to determine [^3H]Rauwolscine specifically bound. Compounds were screened at 1 μM or lower, using 1% DMSO as vehicle. Biochemical assay results are presented as the percent inhibition of specific binding in Table 5.

[2] = target: T2, human recombinant serotonin (5-Hydroxytryptamine) 5-HT2A receptor (Homo sapiens, UniProt P28223); assay: Serotonin 5-HT2A radioligand binding ([3H]Ketanserin); conditions: compound at 1 μM; read-out: Serotonin (1 μM) 5-HT2A, percent inhibition of specific binding
T2 construct: expressed in transfected cells; host or cells: CHO-K1 cells
T2 sequence (P28223 whole entry): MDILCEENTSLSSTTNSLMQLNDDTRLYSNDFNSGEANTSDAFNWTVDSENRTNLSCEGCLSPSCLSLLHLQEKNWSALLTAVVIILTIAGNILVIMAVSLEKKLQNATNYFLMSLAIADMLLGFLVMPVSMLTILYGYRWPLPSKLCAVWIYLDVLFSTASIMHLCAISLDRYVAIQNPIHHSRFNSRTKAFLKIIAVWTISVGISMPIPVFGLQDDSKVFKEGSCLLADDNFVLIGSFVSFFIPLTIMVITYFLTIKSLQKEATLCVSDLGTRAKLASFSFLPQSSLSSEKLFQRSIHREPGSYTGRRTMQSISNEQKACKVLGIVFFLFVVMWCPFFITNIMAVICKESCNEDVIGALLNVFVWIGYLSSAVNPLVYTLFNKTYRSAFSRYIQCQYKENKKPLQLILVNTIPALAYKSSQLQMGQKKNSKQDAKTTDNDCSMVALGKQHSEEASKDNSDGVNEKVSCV
Outline: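 Percent inhibition of specific [3H]ketanserin (0.5 nM) binding, filtration read-out, with compounds at ≤1 μM (1% DMSO vehicle). Receptor source: recombinant human 5-HT2A in CHO-K1 cells, 50 mM Tris-HCl pH 7.4, 60 min, 25 °C; 1 μM mianserin gives nonspecific binding.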

[3] = target: T3, human recombinant adrenergic α1D receptor (Homo sapiens, UniProt P25100); assay: Adrenergic alpha1D radioligand binding ([3H]Prozosin); conditions: compound at 1 μM; read-out: Adrenergic (1 μM) α1D, percent inhibition of specific binding
T3 construct: expressed in transfected cells; host or cells: HEK-293 cells
T3 sequence (P25100 1-572): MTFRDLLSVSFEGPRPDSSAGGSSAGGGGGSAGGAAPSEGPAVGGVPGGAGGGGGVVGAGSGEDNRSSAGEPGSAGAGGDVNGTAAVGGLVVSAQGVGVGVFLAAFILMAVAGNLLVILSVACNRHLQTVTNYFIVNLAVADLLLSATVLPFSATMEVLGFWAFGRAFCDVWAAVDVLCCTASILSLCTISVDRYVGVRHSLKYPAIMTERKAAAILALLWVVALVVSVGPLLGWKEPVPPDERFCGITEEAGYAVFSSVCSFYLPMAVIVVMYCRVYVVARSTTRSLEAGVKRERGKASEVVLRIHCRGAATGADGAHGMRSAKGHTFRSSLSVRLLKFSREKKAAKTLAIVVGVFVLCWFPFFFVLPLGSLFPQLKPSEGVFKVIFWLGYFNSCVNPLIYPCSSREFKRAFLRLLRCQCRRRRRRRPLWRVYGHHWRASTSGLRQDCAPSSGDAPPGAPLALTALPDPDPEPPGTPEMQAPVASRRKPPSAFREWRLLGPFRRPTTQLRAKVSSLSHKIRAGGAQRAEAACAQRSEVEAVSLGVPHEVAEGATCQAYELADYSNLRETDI
Description: To evaluate in radioligand binding assays the activity of compounds of the invention, human recombinant adrenergic α1D receptor expressed in human embryonic kidney (HEK-293) cells (Kenny, B. A. et al. Br. J. Pharmacol. 115(6):981, 1995) in a 50 mM Tris-HCl buffer, pH 7.4, was used. Compounds of invention were incubated with 0.6 nM [^3H]Prozosin for 60 min. at 25° C. Non-specific binding was estimated in the presence of 10 μM phentolamine. Receptor proteins were filtered and washed, the filters were then counted to determine [^3H]Prozosin specifically bound. Compounds were screened at 1 μM or lower, using 1% DMSO as vehicle. Biochemical assay results are presented as the percent inhibition of specific binding in Table 5.

Cc1ccc2c(c1)c1c(n2CCc2cncc(Cl)c2)CCN(C)CC1 [Compound No. 4, 6-(2-(5-chloropyridin-3-yl)ethyl)-1,2,3,4,5,6-hexahydro-3,9-dimethylazepino[4,5-b]indole]
inhibition at 1 µM [1]: 93% | inhibition at 1 µM [2]: 93% | inhibition at 1 µM [3]: 76%

CN1CCc2c(n(CCc3ccncc3)c3ccc(Cl)cc23)CC1 [Compound No. 5, 9-chloro-1,2,3,4,5,6-hexahydro-3-methyl-6-(2-(pyridin-4-yl)ethyl)azepino[4,5-b]indole]
inhibition at 1 µM [1]: 100% | inhibition at 1 µM [2]: 96% | inhibition at 1 µM [3]: 88%

Cc1ccc2c(c1)c1c(n2CCc2ccncc2)CCN(C)CC1 [Compound No. 6, 1,2,3,4,5,6-hexahydro-3,9-dimethyl-6-(2-(pyridin-4-yl)ethyl)azepino[4,5-b]indole]
inhibition at 1 µM [1]: 106% | inhibition at 1 µM [2]: 96% | inhibition at 1 µM [3]: 92%

Cc1ccc(C(O)Cn2c3c(c4cc(Cl)ccc42)CCN(C)CC3)cn1 (stereo not drawn) [Compound No. 7, 2-(9-chloro-2,3,4,5-tetrahydro-3-methylazepino[4,5-b]indol-6(1H)-yl)-1-(6-methylpyridin-3-yl)ethanol]
inhibition at 1 µM [1]: 101% | inhibition at 1 µM [2]: 80% | inhibition at 1 µM [3]: 69%

CN1CCc2c(n(CCc3ccccn3)c3ccc(Cl)cc23)CC1 [Compound No. 8, 9-chloro-1,2,3,4,5,6-hexahydro-3-methyl-6-(2-(pyridin-2-yl)ethyl)azepino[4,5-b]indole]
inhibition at 1 µM [1]: 103% | inhibition at 1 µM [2]: 97% | inhibition at 1 µM [3]: 91%

Cc1ccc2c(c1)c1c(n2CCc2ccccn2)CCN(C)CC1 [Compound No. 9, 1,2,3,4,5,6-hexahydro-3,9-dimethyl-6-(2-(pyridin-2-yl)ethyl)azepino[4,5-b]indole]
inhibition at 1 µM [1]: 90% | inhibition at 1 µM [2]: 96% | inhibition at 1 µM [3]: 80%

CN1CCc2c(n(CCc3cncc(Cl)c3)c3ccc(Cl)cc23)CC1 [Compound No. 10, 9-chloro-6-(2-(5-chloropyridin-3-yl)ethyl)-1,2,3,4,5,6-hexahydro-3-methylazepino[4,5-b]indole]
inhibition at 1 µM [1]: 101% | inhibition at 1 µM [2]: 94% | inhibition at 1 µM [3]: 89%

Cc1ccc2c(c1)c1c(n2CCc2ccc(C(=O)O)nc2)CCN(C)CC1 [Compound No. 11, 5-(2-(2,3,4,5-tetrahydro-3,9-dimethylazepino[4,5-b]indol-6(1H)-yl)ethyl)pyridine-2-carboxylic acid]
inhibition at 1 µM [1]: 3% | inhibition at 1 µM [2]: 5% | inhibition at 1 µM [3]: 7%

CN1CCc2c(n(CC(C)(O)c3ccc(Cl)cc3)c3ccc(Cl)cc23)CC1 (stereo not drawn) [Compound No. 12, 1-(9-chloro-2,3,4,5-tetrahydro-3-methylazepino[4,5-b]indol-6(1H)-yl)-2-(4-chlorophenyl)propan-2-ol]
inhibition at 1 µM [1]: 103% | inhibition at 1 µM [2]: 100% | inhibition at 1 µM [3]: 68%

CN1CCc2c(n(CC(C)(O)c3ccc(F)cc3)c3ccc(Cl)cc23)CC1 (stereo not drawn) [Compound No. 13, 1-(9-chloro-2,3,4,5-tetrahydro-3-methylazepino[4,5-b]indol-6(1H)-yl)-2-(4-fluorophenyl)propan-2-ol]
inhibition at 1 µM [1]: 105% | inhibition at 1 µM [2]: 97% | inhibition at 1 µM [3]: 76%

Cc1ccc2c(c1)c1c(n2CC(C)(O)c2ccc(F)cc2)CCN(C)CC1 (stereo not drawn) [Compound No. 14, 2-(4-fluorophenyl)-1-(2,3,4,5-tetrahydro-3,9-dimethylazepino[4,5-b]indol-6(1H)-yl)propan-2-ol]
inhibition at 1 µM [1]: 100% | inhibition at 1 µM [2]: 101% | inhibition at 1 µM [3]: 75%

Cc1ccc2c(c1)c1c(n2CC(C)(O)c2ccc(Cl)cc2)CCN(C)CC1 (stereo not drawn) [Compound No. 15, 2-(4-chlorophenyl)-1-(2,3,4,5-tetrahydro-3,9-dimethylazepino[4,5-b]indol-6(1H)-yl)propan-2-ol]
inhibition at 1 µM [1]: 104% | inhibition at 1 µM [2]: 101% | inhibition at 1 µM [3]: 72%

CN1CCc2c(n(CC(O)c3ccc(Cl)cc3)c3ccc(Cl)cc23)CC1 (stereo not drawn) [Compound No. 16, 2-(9-chloro-2,3,4,5-tetrahydro-3-methylazepino[4,5-b]indol-6(1H)-yl)-1-(4-chlorophenyl)ethanol]
inhibition at 1 µM [1]: 99% | inhibition at 1 µM [2]: 101% | inhibition at 1 µM [3]: 85%

Cc1ccc2c(c1)c1c(n2CC(O)c2ccc(Cl)cc2)CCN(C)CC1 (stereo not drawn) [Compound No. 17, 1-(4-chlorophenyl)-2-(2,3,4,5-tetrahydro-3,9-dimethylazepino[4,5-b]indol-6(1H)-yl)ethanol]
inhibition at 1 µM [1]: 99% | inhibition at 1 µM [2]: 102% | inhibition at 1 µM [3]: 95%

CN1CCc2c(n(CC(O)c3cccnc3)c3ccc(Cl)cc23)CC1 (stereo not drawn) [Compound No. 18, 2-(9-chloro-2,3,4,5-tetrahydro-3-methylazepino[4,5-b]indol-6(1H)-yl)-1-(pyridin-3-yl)ethanol]
inhibition at 1 µM [1]: 98% | inhibition at 1 µM [2]: 88% | inhibition at 1 µM [3]: 58%

Cc1ccc2c(c1)c1c(n2CC(O)c2cccnc2)CCN(C)CC1 (stereo not drawn) [Compound No. 19, 2-(2,3,4,5-tetrahydro-3,9-dimethylazepino[4,5-b]indol-6(1H)-yl)-1-(pyridin-3-yl)ethanol]
inhibition at 1 µM [1]: 90% | inhibition at 1 µM [2]: 80% | inhibition at 1 µM [3]: 54%

Cc1ccc2c(c1)c1c(n2CCc2ccc(C(F)(F)F)nc2)CCN(C)CC1 [Compound No. 20, 6-(2-(6-(trifluoromethyl)pyridin-3-yl)ethyl)-1,2,3,4,5,6-hexahydro-3,9-dimethylazepino[4,5-b]indole]
inhibition at 1 µM [1]: 88% | inhibition at 1 µM [2]: 95% | inhibition at 1 µM [3]: 91%

CN1CCc2c(n(CCc3ccc(C(=O)O)nc3)c3ccc(Cl)cc23)CC1 [Compound No. 21, 5-(2-(9-chloro-2,3,4,5-tetrahydro-3-methylazepino[4,5-b]indol-6(1H)-yl)ethyl)pyridine-2-carboxylic acid]
inhibition at 1 µM [1]: 6% | inhibition at 1 µM [2]: 8% | inhibition at 1 µM [3]: 17%

Cc1ccc2c(c1)c1c(n2CC(=O)NC2CCCCC2)CCN(C)CC1 [Compound No. 22, N-cyclohexyl-2-(2,3,4,5-tetrahydro-3,9-dimethylazepino[4,5-b]indol-6(1H)-yl)acetamide]
inhibition at 1 µM [1]: -7% | inhibition at 1 µM [2]: -2% | inhibition at 1 µM [3]: 1%

Cc1ccc2c(c1)c1c(n2CC(O)c2ccc(C)nc2)CCN(C)CC1 (stereo not drawn) [Compound No. 23, 2-(2,3,4,5-tetrahydro-3,9-dimethylazepino[4,5-b]indol-6(1H)-yl)-1-(6-methylpyridin-3-yl)ethanol]
inhibition at 1 µM [1]: 25% | inhibition at 1 µM [2]: 67% | inhibition at 1 µM [3]: 17%

CN1CCc2c(n(CC(O)c3ccccc3)c3ccc(Cl)cc23)CC1 (stereo not drawn) [Compound No. 24, 2-(9-chloro-2,3,4,5-tetrahydro-3-methylazepino[4,5-b]indol-6(1H)-yl)-1-phenylethanol]
inhibition at 1 µM [1]: 99% | inhibition at 1 µM [2]: 98% | inhibition at 1 µM [3]: 85%

Source: patent publication US9481676B2, “Azepino[4,5-B]indoles and methods of use” (Medivation Technologies, Inc., priority 2008, dated 2016)
